The target in assay [1] is T1, Low molecular weight phosphotyrosine protein phosphatase (Homo sapiens, UniProt P24666).
T1 sequence (P24666 whole entry): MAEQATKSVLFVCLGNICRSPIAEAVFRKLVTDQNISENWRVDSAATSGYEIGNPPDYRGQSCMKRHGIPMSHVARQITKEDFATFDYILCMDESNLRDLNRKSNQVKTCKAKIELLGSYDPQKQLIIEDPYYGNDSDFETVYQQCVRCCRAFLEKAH
The assay is classed as functional. As to conditions: read-out: IC50_Mean.

In assay [2] the target is T2, Carboxy-terminal domain RNA polymerase II polypeptide A small phosphatase 1 (Homo sapiens, UniProt Q9GZU7).
T2 sequence (Q9GZU7 whole entry): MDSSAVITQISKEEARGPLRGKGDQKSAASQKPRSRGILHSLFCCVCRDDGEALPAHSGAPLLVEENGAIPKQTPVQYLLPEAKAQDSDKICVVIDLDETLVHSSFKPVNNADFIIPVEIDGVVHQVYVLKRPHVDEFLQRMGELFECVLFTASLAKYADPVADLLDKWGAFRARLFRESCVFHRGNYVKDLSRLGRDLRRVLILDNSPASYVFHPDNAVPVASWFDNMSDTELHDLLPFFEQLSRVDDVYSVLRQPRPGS
In words: inhibitors of CTDSP1, concentration-response testing, biochemical assay, absorbance-based, actives from ultra-high-throughput screening (AID 540297). The assay is classed as functional.

In assay [3] the target is T3, Calpain-2 catalytic subunit (Sus scrofa, UniProt P43367).
T3 sequence (P43367 whole entry): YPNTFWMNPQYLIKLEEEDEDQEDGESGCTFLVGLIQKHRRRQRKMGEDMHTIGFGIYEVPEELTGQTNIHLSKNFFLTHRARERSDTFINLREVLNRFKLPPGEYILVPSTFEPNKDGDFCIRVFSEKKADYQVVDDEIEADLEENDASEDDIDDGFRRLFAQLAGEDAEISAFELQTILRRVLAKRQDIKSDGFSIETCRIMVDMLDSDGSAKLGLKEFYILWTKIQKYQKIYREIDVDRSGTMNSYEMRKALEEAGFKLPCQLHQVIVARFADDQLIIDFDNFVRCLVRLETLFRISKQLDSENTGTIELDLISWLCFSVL
In words: pig calpain II inhibitor potency, dose response, biochemical, fluorogenic peptide substrate (AID 1420). The assay is classed as functional.

The target in assay [4] is Eukaryotic translation initiation factor 4E (Mus musculus, UniProt P63073). In words: eIF4E–eIF4G protein interaction inhibitors, dose response, biochemical, TR-FRET (AID 855).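 Note: potency for disrupting eIF4E binding to eIF4GI seen as loss of FRET.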 The assay is classed as functional.
In assay [5] the target is C-C chemokine receptor type 6 (Homo sapiens, UniProt P51684). The assay is described as follows: CCR6 receptor antagonists, dose response, cell-based, luminescent beta-arrestin readout (AID 504728). Format: functional.
In assay [6] the target is Induced myeloid leukemia cell differentiation protein Mcl-1 (Homo sapiens, UniProt Q07820). Format: functional.
The target of another assay is Genome polyprotein (Hepatitis C virus, UniProt Q2Q167). In words: HCV core protein dimerization inhibitors, dose response, biochemical, TR-FRET (AID 2159).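 Note: blocks dimerization of HCV core protein measured by TR-FRET between tagged core106 pairs.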 Further details: species or system Hepacivirus hominis.
Assay [7] deals with T1, Low molecular weight phosphotyrosine protein phosphatase. Format: functional. The conditions noted are these: read-out: IC50_Mean. This is another data set of the same source.
For another assay, the target named is Beta-galactosidase (Escherichia coli, UniProt Q8VNN2). In words: beta-galactosidase enzyme inhibitors and activators, dose response, artefact control for CCR6 antagonist project, biochemical, E. coli enzyme, set 3 (AID 504712). The assay is classed as functional.
A further assay deals with Staphylococcus aureus. In words: Inhibitors of Bacterial Quorum Sensing Structure Activity Relationship (SAR) Analysis: Dose Response Assay. [Related pubchem assays: 700, 527 ]. The assay is classed as functional, organism-based.
The target in assay [8] is Acyl-homoserine lactone acylase PvdQ (Pseudomonas aeruginosa (strain LESB58), UniProt Q9I194). In words: P. aeruginosa PvdQ acylase inhibitors, dose response, biochemical, fluorescence, plate reader and imaging, cherry-picks (AID 493231).
Assay [9] in a line: cytotoxicity in HEK-293T cells, dose response, cytotoxicity control for BCR NF-kB inhibitor project, luminescence, B-cell screen hits (AID 489021).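 Note: HEK-293T cells carrying an NF-kB luciferase reporter; cells exposed to compound for about 14 hours before viability readout.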 The assay is classed as functional, cell-based.
In assay [10] the target is Neurotensin receptor type 1 (Homo sapiens, UniProt P30989). The assay is classed as functional.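 Note: Image-based confirmatory dose-response assay measuring agonist activity at NTR1; NTR1-expressing U2OS osteosarcoma cells imaged for beta-arrestin GFP spot formation; agonist potency where compounds increase beta-arrestin recruitment.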
The target of assay [11] is T4, RNA-binding protein pos-1 (Caenorhabditis elegans, UniProt G5EF15).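 Note: purified POS-1 fused to maltose binding protein made in E. coli; potency of compounds blocking POS-1 binding to fluorescent RNA.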
T4 sequence (G5EF15 whole entry): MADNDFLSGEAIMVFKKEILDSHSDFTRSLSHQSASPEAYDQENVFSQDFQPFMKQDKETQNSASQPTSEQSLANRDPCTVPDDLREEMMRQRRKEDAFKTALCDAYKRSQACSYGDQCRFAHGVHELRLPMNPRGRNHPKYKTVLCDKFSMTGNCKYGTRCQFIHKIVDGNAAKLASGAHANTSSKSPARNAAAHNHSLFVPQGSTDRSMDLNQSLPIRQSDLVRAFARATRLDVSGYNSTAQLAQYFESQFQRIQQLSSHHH
The assay is described as follows: inhibitors of POS-1/mex-3 RNA binding, dose response, biochemical, fluorescence polarization (AID 1964). (In general: Fluorescence polarisation rises when a labelled molecule tumbles more slowly, as on binding a larger partner.)

The target of assay [12] is T5, Zinc finger protein mex-5 (Caenorhabditis elegans, UniProt Q9XUB2).
T5 sequence (Q9XUB2 whole entry): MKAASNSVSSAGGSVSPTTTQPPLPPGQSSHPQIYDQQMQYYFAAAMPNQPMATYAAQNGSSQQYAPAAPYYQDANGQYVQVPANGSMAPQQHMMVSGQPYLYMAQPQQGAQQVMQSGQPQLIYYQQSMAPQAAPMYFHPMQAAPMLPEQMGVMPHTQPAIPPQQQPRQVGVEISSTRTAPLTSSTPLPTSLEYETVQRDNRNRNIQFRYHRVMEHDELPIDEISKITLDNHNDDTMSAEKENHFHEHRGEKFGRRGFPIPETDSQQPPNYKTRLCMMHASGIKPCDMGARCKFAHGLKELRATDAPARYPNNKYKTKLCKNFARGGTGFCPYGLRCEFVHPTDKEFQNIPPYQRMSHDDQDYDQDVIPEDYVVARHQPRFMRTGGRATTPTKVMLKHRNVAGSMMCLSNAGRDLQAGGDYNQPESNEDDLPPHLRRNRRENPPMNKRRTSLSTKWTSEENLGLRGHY
The assay is described as follows: MEX-5/TCR-2 RNA interaction inhibitors, dose response, biochemical, C. elegans, fluorescence polarization (AID 1960).

The target in assay [13] is Neuropeptides B/W receptor type 1 (Homo sapiens, UniProt P48145). The assay is described as follows: Fluorescence-based dose response cell-based high throughput screening assay to identify antagonists of the G-protein coupled receptor 7 (GPR7). [Related pubchem assays: 1952 (Screening assay (GPR7 antagonists).), 1880 (Summary AID.)]. Format: functional.
Assay [14] addresses Melanin-concentrating hormone receptor 1 (Homo sapiens, UniProt Q99705). The assay is described as follows: Fluorescence-based counterscreen for antagonists of the G-protein coupled receptor 7 (GPR7): cell-based high throughput dose response assay to identify antagonists of the melanin-concentrating hormone receptor 1 (MCHR1). Format: functional. On the technique in general: The purpose of a counterscreen is to sort out artefacts and off-target activity.

The target in assay [15] is T6, Voltage-gated N-type calcium channel alpha-1B subunit/Amyloid beta A4 precursor protein-binding family A member 1 (Homo sapiens, UniProt Q00975+Q02410). In words: disruptors of Mint-PDZ/N-type channel peptide interaction – biochemical, HTRF, set 2, SAR follow-up (AID 434980). The assay is classed as functional.
Assay [16] has as its target T7, Apoptotic protease-activating factor 1 (Homo sapiens, UniProt O14727).
T7 sequence (O14727 whole entry): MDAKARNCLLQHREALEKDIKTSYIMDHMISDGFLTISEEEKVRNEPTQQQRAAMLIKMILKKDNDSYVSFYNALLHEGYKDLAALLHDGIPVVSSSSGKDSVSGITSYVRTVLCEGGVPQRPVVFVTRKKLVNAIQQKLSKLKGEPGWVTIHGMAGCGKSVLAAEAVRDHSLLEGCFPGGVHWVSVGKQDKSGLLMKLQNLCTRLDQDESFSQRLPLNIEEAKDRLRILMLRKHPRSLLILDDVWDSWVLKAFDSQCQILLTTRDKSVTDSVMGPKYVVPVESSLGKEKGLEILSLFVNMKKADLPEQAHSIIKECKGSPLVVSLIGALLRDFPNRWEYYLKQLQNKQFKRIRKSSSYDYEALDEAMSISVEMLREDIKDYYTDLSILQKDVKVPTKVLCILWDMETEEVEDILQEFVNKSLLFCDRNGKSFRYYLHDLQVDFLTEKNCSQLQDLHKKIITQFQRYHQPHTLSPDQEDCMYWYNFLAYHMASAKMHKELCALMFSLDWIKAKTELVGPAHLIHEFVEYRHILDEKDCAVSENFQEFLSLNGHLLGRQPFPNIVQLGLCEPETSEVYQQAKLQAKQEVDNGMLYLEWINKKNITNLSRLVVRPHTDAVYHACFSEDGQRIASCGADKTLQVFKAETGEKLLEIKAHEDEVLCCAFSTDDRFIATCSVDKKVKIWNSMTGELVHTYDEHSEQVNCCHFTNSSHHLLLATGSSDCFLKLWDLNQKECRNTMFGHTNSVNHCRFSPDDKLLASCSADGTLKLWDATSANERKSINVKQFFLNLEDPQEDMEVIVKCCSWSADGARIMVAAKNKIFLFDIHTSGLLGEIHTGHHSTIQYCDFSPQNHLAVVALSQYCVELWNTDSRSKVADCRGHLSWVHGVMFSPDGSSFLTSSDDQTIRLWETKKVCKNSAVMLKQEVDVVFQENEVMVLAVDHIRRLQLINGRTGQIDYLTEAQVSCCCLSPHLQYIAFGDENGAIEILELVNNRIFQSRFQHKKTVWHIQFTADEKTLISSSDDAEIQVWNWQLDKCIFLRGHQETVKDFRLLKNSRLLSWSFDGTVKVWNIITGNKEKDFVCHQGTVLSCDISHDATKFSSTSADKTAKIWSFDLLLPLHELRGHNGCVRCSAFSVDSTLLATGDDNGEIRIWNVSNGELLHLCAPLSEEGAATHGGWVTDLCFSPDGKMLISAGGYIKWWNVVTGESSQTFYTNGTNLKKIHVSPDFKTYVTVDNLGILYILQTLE
The assay is classed as functional.

The target of assay [17] is T6, Voltage-gated N-type calcium channel alpha-1B subunit/Amyloid beta A4 precursor protein-binding family A member 1. The assay is classed as protein assay.
Assay [18] concerns the target Female germline-specific tumor suppressor gld-1 (Caenorhabditis elegans, UniProt Q17339). The assay is described as follows: inhibitors of GLD-1 binding to TGE RNA, dose response, biochemical, fluorescence polarization, C. elegans (AID 2802).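 Note: fluorescence polarization of labeled TGE RNA bound by purified gld-1 protein.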
A further assay addresses Protein Rev (Human immunodeficiency virus type 1 group M subtype B (isolate HXB2)(HIV-1), UniProt P04618). In words: inhibitors of Rev binding to RRE RNA, dose response, biochemical, fluorescence polarization, HIV-1 (AID 434976). The arrangement: species or system Human immunodeficiency virus 1.
Assay [19] deals with T6, Voltage-gated N-type calcium channel alpha-1B subunit/Amyloid beta A4 precursor protein-binding family A member 1. Format: protein assay. This is another data set of the same source.

Results on eight molecules are retold here after ChEMBL document CHEMBL1201862, “PubChem BioAssay data set” (2004).

As usually defined, the AC50 is the midpoint of the concentration-response curve, whichever way the signal moves. By EC50 is commonly meant the midpoint of the concentration-response curve.

Structures are written as SMILES. Calls of active or inactive are those of the source.

T6 sequence (Q00975 whole entry): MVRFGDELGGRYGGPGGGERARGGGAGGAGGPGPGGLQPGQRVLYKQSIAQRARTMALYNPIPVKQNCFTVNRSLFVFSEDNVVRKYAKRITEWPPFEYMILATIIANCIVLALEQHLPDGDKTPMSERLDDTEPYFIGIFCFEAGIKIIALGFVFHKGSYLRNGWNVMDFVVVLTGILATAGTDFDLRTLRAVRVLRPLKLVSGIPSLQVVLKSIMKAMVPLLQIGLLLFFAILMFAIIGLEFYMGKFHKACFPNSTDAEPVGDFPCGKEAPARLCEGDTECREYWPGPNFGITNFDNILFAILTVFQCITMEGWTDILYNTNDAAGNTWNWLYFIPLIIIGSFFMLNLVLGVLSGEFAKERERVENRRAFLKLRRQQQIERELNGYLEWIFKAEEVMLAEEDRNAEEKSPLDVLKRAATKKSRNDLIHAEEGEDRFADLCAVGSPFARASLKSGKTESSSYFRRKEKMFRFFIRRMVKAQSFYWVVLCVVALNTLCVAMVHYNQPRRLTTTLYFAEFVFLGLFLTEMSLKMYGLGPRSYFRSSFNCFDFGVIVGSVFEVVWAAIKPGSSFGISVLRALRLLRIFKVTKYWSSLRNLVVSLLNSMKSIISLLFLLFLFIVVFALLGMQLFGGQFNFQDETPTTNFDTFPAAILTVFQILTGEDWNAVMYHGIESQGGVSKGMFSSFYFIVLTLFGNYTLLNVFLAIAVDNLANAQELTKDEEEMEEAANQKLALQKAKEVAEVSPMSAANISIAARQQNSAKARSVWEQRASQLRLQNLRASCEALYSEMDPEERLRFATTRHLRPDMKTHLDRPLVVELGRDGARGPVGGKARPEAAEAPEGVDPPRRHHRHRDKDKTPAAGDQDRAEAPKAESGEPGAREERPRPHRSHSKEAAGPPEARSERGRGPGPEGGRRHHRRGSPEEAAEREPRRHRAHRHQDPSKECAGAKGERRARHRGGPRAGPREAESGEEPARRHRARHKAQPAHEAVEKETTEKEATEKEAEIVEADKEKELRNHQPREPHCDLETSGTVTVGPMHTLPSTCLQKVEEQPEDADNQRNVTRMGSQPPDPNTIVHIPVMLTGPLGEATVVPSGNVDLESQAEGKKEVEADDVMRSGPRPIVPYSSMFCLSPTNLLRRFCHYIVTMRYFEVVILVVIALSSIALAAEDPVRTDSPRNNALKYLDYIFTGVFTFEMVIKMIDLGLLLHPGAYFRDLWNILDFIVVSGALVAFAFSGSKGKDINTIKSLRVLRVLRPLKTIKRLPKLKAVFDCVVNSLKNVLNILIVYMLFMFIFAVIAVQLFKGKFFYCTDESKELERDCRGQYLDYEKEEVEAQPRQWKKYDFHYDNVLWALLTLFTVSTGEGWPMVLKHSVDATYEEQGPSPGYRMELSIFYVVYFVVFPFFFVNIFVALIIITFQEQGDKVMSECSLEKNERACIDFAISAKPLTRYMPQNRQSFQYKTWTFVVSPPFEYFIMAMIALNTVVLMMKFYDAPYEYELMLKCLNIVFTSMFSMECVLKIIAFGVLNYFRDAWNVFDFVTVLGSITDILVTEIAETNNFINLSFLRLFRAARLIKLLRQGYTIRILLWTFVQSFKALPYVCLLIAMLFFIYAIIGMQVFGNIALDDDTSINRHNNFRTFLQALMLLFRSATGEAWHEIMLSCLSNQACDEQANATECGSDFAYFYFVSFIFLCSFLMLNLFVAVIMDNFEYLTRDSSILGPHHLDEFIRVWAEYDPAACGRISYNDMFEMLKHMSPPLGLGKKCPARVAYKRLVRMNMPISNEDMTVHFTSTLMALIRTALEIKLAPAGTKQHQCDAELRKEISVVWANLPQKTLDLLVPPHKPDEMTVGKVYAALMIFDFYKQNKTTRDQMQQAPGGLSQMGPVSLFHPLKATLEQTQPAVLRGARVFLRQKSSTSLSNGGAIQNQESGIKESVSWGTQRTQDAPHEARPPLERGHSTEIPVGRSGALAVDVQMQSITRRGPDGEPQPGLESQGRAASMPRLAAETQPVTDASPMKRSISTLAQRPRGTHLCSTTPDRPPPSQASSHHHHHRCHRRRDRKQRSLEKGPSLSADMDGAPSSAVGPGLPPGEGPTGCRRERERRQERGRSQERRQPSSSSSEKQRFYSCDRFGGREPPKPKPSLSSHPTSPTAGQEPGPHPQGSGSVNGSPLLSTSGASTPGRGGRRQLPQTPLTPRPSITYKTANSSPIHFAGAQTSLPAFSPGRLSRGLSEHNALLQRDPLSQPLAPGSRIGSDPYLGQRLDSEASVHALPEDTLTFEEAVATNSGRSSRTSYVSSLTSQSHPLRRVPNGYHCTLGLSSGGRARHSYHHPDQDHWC
T6 sequence (Q02410 whole entry): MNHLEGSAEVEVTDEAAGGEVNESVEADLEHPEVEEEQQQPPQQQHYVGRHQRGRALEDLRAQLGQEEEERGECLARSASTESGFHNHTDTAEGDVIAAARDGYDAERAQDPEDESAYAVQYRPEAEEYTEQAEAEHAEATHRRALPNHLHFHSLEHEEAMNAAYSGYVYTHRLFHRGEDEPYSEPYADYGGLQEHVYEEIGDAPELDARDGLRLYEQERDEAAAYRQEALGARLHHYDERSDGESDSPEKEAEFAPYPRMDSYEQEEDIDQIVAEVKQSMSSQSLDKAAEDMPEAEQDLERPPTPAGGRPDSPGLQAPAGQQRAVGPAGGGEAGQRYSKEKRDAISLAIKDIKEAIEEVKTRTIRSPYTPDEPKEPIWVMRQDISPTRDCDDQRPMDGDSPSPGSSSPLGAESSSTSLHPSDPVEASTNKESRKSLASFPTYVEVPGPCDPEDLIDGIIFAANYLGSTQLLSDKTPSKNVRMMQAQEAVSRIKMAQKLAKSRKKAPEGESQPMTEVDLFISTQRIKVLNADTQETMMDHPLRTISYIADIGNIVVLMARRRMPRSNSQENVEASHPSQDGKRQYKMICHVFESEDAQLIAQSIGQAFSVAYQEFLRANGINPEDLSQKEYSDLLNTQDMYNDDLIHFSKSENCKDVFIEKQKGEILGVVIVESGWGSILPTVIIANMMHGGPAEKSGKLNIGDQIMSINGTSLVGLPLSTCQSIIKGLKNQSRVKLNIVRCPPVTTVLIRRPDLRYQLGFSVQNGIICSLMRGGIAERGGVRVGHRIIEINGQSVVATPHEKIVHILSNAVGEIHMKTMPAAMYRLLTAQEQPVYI
Chain of C-C chemokine receptor type 6 (P51684 whole entry): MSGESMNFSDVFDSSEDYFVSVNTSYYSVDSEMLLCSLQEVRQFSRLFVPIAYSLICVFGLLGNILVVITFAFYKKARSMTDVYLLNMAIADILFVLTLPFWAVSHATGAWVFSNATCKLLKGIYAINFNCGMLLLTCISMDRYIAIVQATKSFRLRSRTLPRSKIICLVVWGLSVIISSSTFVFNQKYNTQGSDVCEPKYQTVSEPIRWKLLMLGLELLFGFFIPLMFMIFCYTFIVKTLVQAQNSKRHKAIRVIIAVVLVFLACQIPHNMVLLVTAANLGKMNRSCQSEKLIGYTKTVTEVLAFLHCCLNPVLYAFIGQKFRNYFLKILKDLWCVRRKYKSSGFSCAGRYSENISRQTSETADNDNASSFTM
Chain of Neuropeptides B/W receptor type 1 (P48145 whole entry): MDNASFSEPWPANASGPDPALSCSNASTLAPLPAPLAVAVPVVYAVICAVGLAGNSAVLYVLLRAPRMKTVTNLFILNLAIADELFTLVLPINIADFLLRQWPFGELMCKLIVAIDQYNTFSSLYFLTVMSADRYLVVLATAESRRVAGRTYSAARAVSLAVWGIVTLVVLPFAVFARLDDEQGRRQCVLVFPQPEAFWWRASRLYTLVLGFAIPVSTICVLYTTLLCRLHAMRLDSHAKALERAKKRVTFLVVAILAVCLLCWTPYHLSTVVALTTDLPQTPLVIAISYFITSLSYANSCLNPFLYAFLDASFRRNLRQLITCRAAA
Chain of Neurotensin receptor type 1 (P30989 whole entry, the tested form may be a part): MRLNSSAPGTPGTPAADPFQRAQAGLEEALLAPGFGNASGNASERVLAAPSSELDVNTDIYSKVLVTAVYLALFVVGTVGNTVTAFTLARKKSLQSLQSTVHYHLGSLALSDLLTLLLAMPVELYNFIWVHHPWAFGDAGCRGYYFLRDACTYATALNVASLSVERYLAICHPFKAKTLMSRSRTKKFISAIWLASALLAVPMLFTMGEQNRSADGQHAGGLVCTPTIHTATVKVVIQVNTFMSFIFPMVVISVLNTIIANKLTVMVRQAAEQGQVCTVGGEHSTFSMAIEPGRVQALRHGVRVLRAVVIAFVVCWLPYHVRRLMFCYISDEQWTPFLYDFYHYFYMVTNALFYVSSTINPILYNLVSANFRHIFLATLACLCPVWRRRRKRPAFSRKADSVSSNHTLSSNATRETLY
Chain of Genome polyprotein (Q2Q167 whole entry): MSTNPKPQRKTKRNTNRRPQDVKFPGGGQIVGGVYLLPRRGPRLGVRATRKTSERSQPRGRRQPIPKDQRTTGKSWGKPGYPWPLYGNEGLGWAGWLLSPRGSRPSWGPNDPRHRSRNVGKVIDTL
Chain of Female germline-specific tumor suppressor gld-1 (Q17339 whole entry): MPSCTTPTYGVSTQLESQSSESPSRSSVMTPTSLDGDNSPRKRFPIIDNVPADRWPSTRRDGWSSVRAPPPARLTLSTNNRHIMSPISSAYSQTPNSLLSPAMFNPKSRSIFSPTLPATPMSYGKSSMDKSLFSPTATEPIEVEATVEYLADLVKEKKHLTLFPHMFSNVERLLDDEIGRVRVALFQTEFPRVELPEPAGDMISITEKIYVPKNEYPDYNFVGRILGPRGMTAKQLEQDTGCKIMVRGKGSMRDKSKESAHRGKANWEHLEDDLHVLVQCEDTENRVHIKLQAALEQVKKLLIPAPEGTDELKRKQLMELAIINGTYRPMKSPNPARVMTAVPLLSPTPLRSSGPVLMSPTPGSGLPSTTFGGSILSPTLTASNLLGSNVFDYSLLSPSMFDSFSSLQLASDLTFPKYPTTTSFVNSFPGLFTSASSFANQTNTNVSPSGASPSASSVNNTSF
Chain of Protein Rev (P04618 whole entry): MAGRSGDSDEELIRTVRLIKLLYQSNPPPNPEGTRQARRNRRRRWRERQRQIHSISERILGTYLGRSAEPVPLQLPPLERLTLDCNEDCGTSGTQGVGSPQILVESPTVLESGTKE

As for `O=C(N=Nc1c(O)[nH]c2ccc([N+](=O)[O-])cc12)c1cc(-c2ccccc2Cl)nc2ccccc12`, the IC50 is 1.98 µM (active) in assay [1]; 0.711 µM (active) in assay [2]; 4.56 µM (not active) in [3]; > 64 µM (inactive) in assay [4]; > 66.6 µM (inactive) in assay [5]; 1.18 µM (active) in assay [6]. In addition, the values for the IC50 (on Genome polyprotein; in [7]; at Beta-galactosidase) were > 49.8 µM (not active), 2.89 µM (active) and > 66.6 µM (inactive), respectively.

As for `COc1ccc(CC(=O)Nc2oc(-c3ccccc3)c(-c3ccccc3)c2C#N)cc1`, the IC50 in the assay with Staphylococcus aureus is 1.96 µM (active).

As to `CCOC(=O)N1CCN(c2nc3ccccn3c(=O)c2C=O)CC1`, the AC50 in [8] was 32.9 µM (active).

As to `NC(=S)N=Nc1c(O)n(Cc2ccccc2)c2ccccc12`, the IC50 in [9] is > 80 µM (inactive).

Take `O=C(CC1Nc2ccccc2NC1=O)Nc1cc(Cl)cc(Cl)c1` (stereo not drawn): the results for the EC50 in assay [10], in assay [11] and in assay [12] were 8.64 µM (active), 152 µM (active) and > 300 µM (not active), respectively.

Regarding `CCOC(=O)CNC(c1ccccc1)c1cc(Br)ccc1NC(C)=O` (stereo not drawn), the IC50 in assay [13] and in assay [14] was > 43.8 µM (not active) each time.

Take `O=C(NC1CCc2ccccc2C1)c1cc(-c2ccco2)nc2ccccc12` (stereo not drawn): the IC50 in assay [15] is > 56.8 µM (inactive).

On to `Nc1cc2nc3ccccc3nc2cc1N`, for which the IC50 in assay [16] was > 100 µM (inactive); in assay [17], 9.86 µM (active); in [18] it was 4.97 µM (active); at Protein Rev it was 9.53 µM (active); in assay [19] it was > 50 µM (inactive).
